According to PMC10436263 (2023):

Experiments:
Assay in all cases: X-ray crystallography
[1] = system: d(5′-CGCGAATTCGCG-3′)2 (AATT) (DNA, duplex) CGCGAATTCGCG
[2] = system: d(5′-CGCAAATTTGCG-3′)2 (AAATTT, A3T3) (DNA, duplex) CGCAAATTTGCG; conditions: crystallization details in Table S1 (not seen); 1.54 Å
[3] = system: d(5′-GCTGGATATATCCAGC-3′)2 (ATATAT) (DNA, duplex) GCTGGATATATCCAGC; conditions: 600 mM CaCl2; 10 mM HEPES pH 8.6, 40% PEG200 (well); 1.50 Å
[4] = system: d(5′-CGCGAAAACGCG-3′/5′-CGCGTTTTCGCG-3′) (A4) (DNA, duplex) CGCGAAAACGCG/CGCGTTTTCGCG; conditions: crystallization details in Table S1 (not seen); 1.55 Å
[5] = system: d(5′-CGCAAAAAAGCG-3′/5′-CGCTTTTTTGCG-3′) (A6) (DNA, duplex) CGCAAAAAAGCG/CGCTTTTTTGCG; conditions: crystallization details in Table S1 (not seen); two orientations (8F1S, 8F1V); 2.1 Å
[6] = system: d(5′-CGCGATATCGCG-3′)2 (ATAT) (DNA, duplex) CGCGATATCGCG; conditions: crystallization details in Table S1 (not seen); 1.63 Å

Measured: binding

N=C(N)c1ccc(-c2ccc3cc(-c4ccc(C(=N)N)cc4)[nH]c3c2)cc1
yes: [1]; crystallization details in Table S1 (not seen)

N=C(N)c1ccc(-c2ccc3nc(-c4ccc(C(=N)N)cc4)[nH]c3c2)cc1
yes: [2] | [3] | [4] | [1]; 20 mM MgCl2, 80 mM NaCl, 12 mM KCl, 40 mM sodium cacodylate pH 6.0, 12 mM spermine, 10% MPD, two orientations (8EC1 I, 8ED6 II) | [5] | [6]
